In the test the target is S1P1 (Homo sapiens (Human), UniProt P21453). Briefly: S1P1 GTPγS binding assay. The note with it: [35S]-GTPγS, membranes with high-expressed S1P1 (CHO-S1P1). The format is biochemical. On the procedure:
1. S1P1GTPγS Binding Assay
2) T-75 cell culture plate; 150 mm cell culture dish
3) DMEM cell culture fluid; 10% (v/v) fetal bovine serum; 100 U/ml penicillin-100 μg/ml streptomycin; 2 mM […], 1 mg/ml G-418
4) Cell Lysis Buffer: HEPES 20 mM (pH 7.4), EDTA 10 mM
5) Stock solution: HEPES 20 mM, EDTA 0.1 mM
6) Binding Buffer; HEPES 20 mM (pH 7.4), NaCl 100 mM, MgCl2 5 mM, GDP 1 μM, BSA 0.1% (w/v), DMSO 2.5% (v/v),
7) Washing solution: NaH2PO4 10 mM (pH 7.4)
The test compounds were dissolved in DMSO and prepared as a concentration of 20 mM.
The concentrations of the compounds were detected ranging from 0.3 nM to 20 μM.
Control group: […] SIP and SEW2871 were used as positive control and were purchased from Tocris company, and the binding buffet was as negative control.
Test method: wetting membranes by saponin solution, and preparing [^35S]-GTPγS in binding solution (4×). The test compound was prepared as 4× of the final concentration which was then performed serial 3× dilution in 100% DMSO. Membranes with high-expressed S1P1 were collected in 5 ml binding buffer, and 50 μL was added to 96-well (containing 5 μg membrane protein with high-expressed S1P1). 25 μL, test compound was added in each well. The compound was incubated with the membranes for 30 min at room temperature, then 25 μL [^35S]-GTPγS was added, and the experiment was initiated. The 96-well detection plate was incubated for 1 hour at room temperature, filtered by filtermat B, and washed with washing solution for three times. After the plate was dried for 1 h at 50° C., 8 ml scintillator solution was added and counted using scintillation counter.
Result Analysis and Determination of 50% Inhibitory Concentration (IC50):
The IC50 value was calculated by using (Prism 4) software, and 50% inhibitory concentrations were obtained.
Sequence of S1P1 (P21453 whole entry): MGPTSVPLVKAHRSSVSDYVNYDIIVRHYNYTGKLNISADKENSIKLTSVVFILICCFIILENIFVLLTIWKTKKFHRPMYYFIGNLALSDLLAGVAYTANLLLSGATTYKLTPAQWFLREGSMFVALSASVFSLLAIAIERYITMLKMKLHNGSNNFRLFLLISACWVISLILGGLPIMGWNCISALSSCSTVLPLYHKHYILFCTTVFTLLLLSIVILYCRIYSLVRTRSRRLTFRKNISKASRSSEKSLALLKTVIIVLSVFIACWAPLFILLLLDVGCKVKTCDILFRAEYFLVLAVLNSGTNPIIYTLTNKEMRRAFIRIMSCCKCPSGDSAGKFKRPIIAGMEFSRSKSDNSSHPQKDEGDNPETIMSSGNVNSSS
With `CC(C)Oc1ccc(-c2nnc(-c3ccc4c(c3)CC(N)(CO)CC4)o2)cc1` (centres unmarked) [Example 16, 7-[5-(4-isopropoxyphenyl)-2-1,3,4-oxdiazolyl]-2-amino-1,2,3,4-tetrahydro-naphthalen-2-yl-methanol], the IC50 amounted to 46 nM.

The molecule `COCCOc1ccc(-c2nnc(-c3ccc4c(c3)CC(N)(CO)CC4)o2)cc1C(F)(F)F` (centres unmarked) [Example 17, 7-{5-[4-(2-methoxyethoxy)-3-trifluoromethylphenyl]-2-1,3,4-oxdiazolyl}-2-amino-1,2,3,4-tetrahydro-naphthalen-2-yl-methanol] came in with an IC50 of 10.2 nM. This IC50 lies about 4.5-fold lower than the previous one. In the case of `COCCOc1ccc(-c2nnc(-c3ccc4c(c3)CC(N)(CO)CC4)o2)cc1C` (centres unmarked) [Example 18, 7-{5-[4-(2-methoxyethoxy)-3-methylphenyl]-2-1,3,4-oxdiazolyl}-2-amino-1,2,3,4-tetrahydro-naphthalen-2-yl-methanol] it was 41.1 nM; in that of `CC(C)Oc1ccc(-c2nnc(-c3ccc4c(c3)CC(N)(CO)CC4)o2)cn1` (centres unmarked) [Example 19, 7-[5-(6-isopropoxy-3-pyridyl)-2-[1,3,4]-oxdiazolyl]-2-amino-1,2,3,4-tetrahydronaphthalen-2-yl-methanol], 61.2 nM. The same measure for `CCOc1ccc(-c2nnc(-c3ccc4c(c3)CC(N)(CO)CC4)o2)cc1OCC` (centres unmarked) [Example 20, 7-[5-(3,4-diethoxyphenyl)-2-[1,3,4]-oxdiazolyl]-2-amino-1,2,3,4-tetrahydro-naphthalen-2-yl-methanol]: 179 nM; for `CCNC1(CO)CCc2ccc(-c3nnc(-c4ccc(OC(C)C)c(C)c4)o3)cc2C1` (centres unmarked) [Example 23, 7-[5-(3-methyl-4-isopropoxyphenyl)-2-1,3,4-oxdiazolyl]-2-ethylamino-1,2,3,4-tetrahydro-naphthalen-2-yl-methanol]: 37.6 nM; for `CC(=O)NC1(CO)CCc2ccc(-c3nnc(-c4ccc(OC(C)C)c(C)c4)o3)cc2C1` (centres unmarked) [Example 25, N-{2-hydroxymethyl-7-[5-(3-methyl-4-isopropoxyphenyl)-2-1,3,4-oxdiazolyl]-1,2,3,4-tetrahydro-naphthalen-2-yl}acetamide]: 45.5 nM. Molecule `Cc1cc(-c2nnc(-c3ccc4c(c3)CC(CO)(NS(C)(=O)=O)CC4)o2)ccc1OC(C)C` (centres unmarked) [Example 26, N-{2-hydroxymethyl-7-[5-(3-methyl-4-isopropoxyphenyl)-2-1,3,4-oxdiazolyl]-1,2,3,4-tetrahydro-naphthalen-2-yl}methanesulfonamide] had an IC50 of 86 nM. The molecule `Cc1cc(-c2noc(-c3ccc4c(c3)CCC(N)(CO)C4)n2)ccc1OC(C)C` (centres unmarked) [Example 28, 6-[3-(3-methyl-4-isopropoxyphenyl)-5-1,2,4-oxdiazolyl]-2-amino-1,2,3,4-tetrahydro-naphthalen-2-yl-methanol] yielded an IC50 of 473 nM. This IC50 lies about 5.5-fold higher than the previous one. The same measure for `Cc1cc(-c2nc(-c3ccc4c(c3)CCC(N)(CO)C4)no2)ccc1OC(C)C` (centres unmarked) [Example 30, 6-[5-(3-methyl-4-isopropoxyphenyl)-3-1,2,4-oxdiazolyl]-2-amino-1,2,3,4-tetrahydro-naphthalen-2-yl-methanol]: 749 nM. In the case of `Cc1cc(-c2cn(-c3ccc4c(c3)CCC(N)(CO)C4)nn2)ccc1OC(C)C` (centres unmarked) [Example 32, 6-[4-(3-methyl-4-isopropoxyphenyl)-1-1,2,3-triazolyl]-2-amino-1,2,3,4-tetrahydro-naphthalen-2-yl-methanol] it was 125 nM.

As a reminder, the IC50 is the point on the concentration scale where inhibition reaches its midpoint. Low values mean inhibition by little substance, high ones a need for much substance.

The values above are taken from patent US9315492B2, “Heterocyclic group contained amino-methanol derivative, and salt, synthetic method and use thereof” (BEIJING FORELAND BIOPHARMA CO., LTD., priority 2012, dated 2016).
